Measurements as given in patent publication US11072626B2, “Small molecule inhibitors of Galectin-3” (BRISTOL-MYERS SQUIBB COMPANY, priority 2017, dated 2021).

target: His-tagged recombinant human Gal-3 (hGal-3) (Homo sapiens (Human), UniProt P17931); experiment: Gal-3 HTRF assay (hGal-3 / B-ASF); assay type: binding; details: 15 nM hGal-3, 15 nM B-ASF, three replicates, room temperature, read-out: hGal3 IC50
Description: ASSAY BUFFER Composition: 25 mM HEPES, 100 mM NaCl, 0.005% Tween 20, 0.05% BSA prepared in sterile water (all reagents from Sigma)
Positive Control: 100% DMSO (1 μl)+His-tagged hGal-3 (20 μL)+B-ASF (20 μl)+Anti-His Terbium Antibody (5 μl)+Strep d2 Antibody (5 μl).
Negative Control: 100% DMSO (1 μl)+His-tagged hGal-3 (20μL)+Anti His Terbium Antibody (5 μl)+Strep d2 Aantibody (5 μl).
PROTOCOL: The Gal-3 assays were performed in 384 white Opti plates in three replicates at room temperature with gentle shaking at 250-300 rpm From the original stocks, […] working stock concentrations of His-tagged recombinant human Gal-3 (hGal-3) and that of B-ASF were prepared. From the working stock, 20 μl of hGal-3 (15 nM) and 20 μl B-ASF (15 nM) were added to the plates. In Negative Control, only hGal-3 was added. A concentration range of 50× working stocks were prepared for the compounds in 100% DMSO. Aliquots of 1 uL of the compounds were added to the wells and pre-incubated with 20 μl hGal-3 per well for 30 minutes Then 20 μl B-ASF were added and incubated for another 1 hour. To detect the signal, 5 μ(final conc. of 1.0 nM) terbium labelled Anti-His antibody was added and incubated for 30 min followed by adding 5 μ(final conc. of 20 nM) Streptavidin d2 and incubation for another 1 hour. The assay signal was detected using HTRF screen protocol (Excitation wavelength=340 nm, emission wavelength=615 nm/665 nm) on Envision 2104 Multilabel Reader. Data analysed using Toolset and Curve Master. Results are reported in the experimental section (IC50 in μM).

His-tagged recombinant human Gal-3 (hGal-3), sequence (P17931 whole entry): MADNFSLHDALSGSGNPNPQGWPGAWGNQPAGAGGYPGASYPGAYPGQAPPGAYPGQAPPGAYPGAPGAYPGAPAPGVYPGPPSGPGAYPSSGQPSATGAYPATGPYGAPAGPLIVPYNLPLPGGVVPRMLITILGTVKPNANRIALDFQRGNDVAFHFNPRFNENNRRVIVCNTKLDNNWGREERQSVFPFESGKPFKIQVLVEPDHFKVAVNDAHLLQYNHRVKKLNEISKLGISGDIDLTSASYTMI

SMILES | IC50
O=C(O)CO[C@@H]1[C@@H](n2cc(-c3cc(F)c(F)c(F)c3)nn2)[C@@H](O)[C@@H](CO)O[C@@H]1[S+]([O-])c1ccc(Cl)c(Cl)c1 (single isomer, unassigned) [18 (isomer-1)] | 17 nM
O=C(O)CO[C@@H]1[C@@H](n2cc(-c3cc(F)c(F)c(F)c3)nn2)[C@@H](O)[C@@H](CO)O[C@@H]1[S+]([O-])c1ccc(Cl)c(Cl)c1 (single isomer, unassigned) [18 (isomer-2)] | 100 nM
CO[C@@H]1[C@@H](n2cc(-c3cc(F)c(F)c(F)c3)nn2)[C@@H](O)[C@@H](CO)O[C@@H]1[S+]([O-])c1ccc(Cl)c(Cl)c1 (single isomer, unassigned) [Example 2 (isomer-1)] | 29 nM
CO[C@@H]1[C@@H](n2cc(-c3cc(F)c(F)c(F)c3)nn2)[C@@H](O)[C@@H](CO)O[C@@H]1[S+]([O-])c1ccc(Cl)c(Cl)c1 (single isomer, unassigned) [Example 2 (isomer-2)] | 155 nM
CCO[C@@H]1[C@@H](n2cc(-c3cc(F)c(F)c(F)c3)nn2)[C@@H](O)[C@@H](CO)O[C@@H]1[S+]([O-])c1ccc(Cl)c(Cl)c1 (single isomer, unassigned) [Example 9 (isomer-1)] | 100 nM
CCO[C@@H]1[C@@H](n2cc(-c3cc(F)c(F)c(F)c3)nn2)[C@@H](O)[C@@H](CO)O[C@@H]1[S+]([O-])c1ccc(Cl)c(Cl)c1 (single isomer, unassigned) [Example 9 (isomer-2)] | 340 nM
CC(O[C@@H]1[C@@H](n2cc(-c3cc(F)c(F)c(F)c3)nn2)[C@@H](O)[C@@H](CO)O[C@@H]1Sc1ccc(Cl)c(Cl)c1)C(=O)O (single isomer, unassigned) [Example 38 (isomer-1)] | 150 nM
CC(O[C@@H]1[C@@H](n2cc(-c3cc(F)c(F)c(F)c3)nn2)[C@@H](O)[C@@H](CO)O[C@@H]1Sc1ccc(Cl)c(Cl)c1)C(=O)O (single isomer, unassigned) [Example 38 (isomer-2)] | 40 nM
CC(O[C@@H]1[C@@H](n2cc(-c3cc(F)c(F)c(F)c3)nn2)[C@@H](O)[C@@H](CO)O[C@@H]1S(=O)(=O)c1ccc(Cl)c(Cl)c1)C(=O)O (single isomer, unassigned) [Example 39 (isomer-1)] | 360 nM
CC(O[C@@H]1[C@@H](n2cc(-c3cc(F)c(F)c(F)c3)nn2)[C@@H](O)[C@@H](CO)O[C@@H]1S(=O)(=O)c1ccc(Cl)c(Cl)c1)C(=O)O (single isomer, unassigned) [Example 39 (isomer-2)] | 20 nM
OC[C@H]1O[C@H](Sc2ccc(Cl)c(Cl)c2)[C@H](F)[C@@H](n2cc(-c3cc(F)c(F)c(F)c3)nn2)[C@H]1O (single isomer, unassigned) [Example 62 (isomer-1)] | 2200 nM
OC[C@H]1O[C@@H](Sc2ccc(Cl)c(Cl)c2)[C@H](F)[C@@H](n2cc(-c3cc(F)c(F)c(F)c3)nn2)[C@H]1O (single isomer, unassigned) [Example 62 (isomer-2)] | 10000 nM
CO[C@@H]1[C@@H](n2cc(-c3cc(F)c(F)c(F)c3)nn2)[C@@H](O)[C@@H](CO)O[C@@H]1Sc1ccc(Cl)c(Cl)c1 [Example 1, (2R,3R,4S,5R,6R)-6-((3,4-dichlorophenyl)thio)-2-(hydroxymethyl)-5-methoxy-4-(4-(3,4,5-trifluorophenyl)-1H-1,2,3-triazol-1-yl)tetrahydro-2H-pyran-3-ol] | 700 nM
CO[C@@H]1[C@@H](n2cc(-c3cc(F)c(F)c(F)c3)nn2)[C@@H](O)[C@@H](CO)O[C@@H]1S(=O)(=O)c1ccc(Cl)c(Cl)c1 [Example 3, (2R,3R,4S,5R,6R)-6-((3,4-dichlorophenyl)sulfonyl)-2-(hydroxymethyl)-5-methoxy-4-(4-(3,4,5-trifluorophenyl)-1H-1,2,3-triazol-1-yl)tetrahydro-2H-pyran-3-ol] | 112 nM
CCO[C@@H]1[C@@H](n2cc(-c3cc(F)c(F)c(F)c3)nn2)[C@@H](O)[C@@H](CO)O[C@@H]1Sc1ccc(Cl)c(Cl)c1 [Example 4, (2R,3R,4S,5R,6R)-6-((3,4-dichlorophenyl)thio)-5-ethoxy-2-(hydroxymethyl)-4-(4-(3,4,5-trifluorophenyl)-1H-1,2,3-triazol-1-yl)tetrahydro-2H-pyran-3-ol] | 1050 nM
CCO[C@@H]1[C@@H](n2cc(-c3cc(F)c(F)c(F)c3)nn2)[C@@H](O)[C@@H](CO)O[C@@H]1S(=O)(=O)c1ccc(Cl)c(Cl)c1 [Example 10, (2R,3R,4S,5R,6R)-6-((3,4-dichlorophenyl)sulfonyl)-5-ethoxy-2-(hydroxymethyl)-4-(4-(3,4,5-trifluorophenyl)-1H-1,2,3-triazol-1-yl)tetrahydro-2H-pyran-3-ol] | 200 nM
COCCO[C@@H]1[C@@H](n2cc(-c3cc(F)c(F)c(F)c3)nn2)[C@@H](O)[C@@H](CO)O[C@@H]1[S@+]([O-])c1ccc(Cl)c(Cl)c1 [Example 11, (2R,3R,4S,5R,6R)-6-((R)-(3,4-dichlorophenyl)sulfinyl)-2-(hydroxymethyl)-5-(2-methoxyethoxy)-4-(4-(3,4,5-trifluorophenyl)-1H-1,2,3-triazol-1-yl)tetrahydro-2H-pyran-3-ol] | 56 nM
COCCO[C@@H]1[C@@H](n2cc(-c3cc(F)c(F)c(F)c3)nn2)[C@@H](O)[C@@H](CO)O[C@@H]1S(=O)(=O)c1ccc(Cl)c(Cl)c1 [Example 12, (2R,3R,4S,5R,6R)-6-((3,4-dichlorophenyl)sulfonyl)-2-(hydroxymethyl)-5-(2-methoxyethoxy)-4-(4-(3,4,5-trifluorophenyl)-1H-1,2,3-triazol-1-yl)tetrahydro-2H-pyran-3-ol] | 130 nM
[O-][N+]1(CCO[C@@H]2[C@@H](n3cc(-c4cc(F)c(F)c(F)c4)nn3)[C@@H](O)[C@@H](CO)O[C@@H]2Sc2ccc(Cl)c(Cl)c2)CCOCC1 [Example 13, 4-(2-(((2R,3R,4S,5R,6R)-2-((3,4-dichlorophenyl)thio)-5-hydroxy-6-(hydroxymethyl)-4-(4-(3,4,5-trifluorophenyl)-1H-1,2,3-triazol-1-yl)tetrahydro-2H-pyran-3-yl)oxy)ethyl)morpholine 4-oxide] | 50 nM
CCOC(=O)CO[C@@H]1[C@@H](n2cc(-c3cc(F)c(F)c(F)c3)nn2)[C@@H](O)[C@@H](CO)O[C@@H]1Sc1ccc(Cl)c(Cl)c1 [Example 14, ethyl 2-(((2R,3R,4S,5R,6R)-2-((3,4-dichlorophenyl)thio)-5-hydroxy-6-(hydroxymethyl)-4-(4-(3,4,5-trifluorophenyl)-1H-1,2,3-triazol-1-yl)tetrahydro-2H-pyran-3-yl)oxy)acetate] | 380 nM
N#CCO[C@@H]1[C@@H](n2cc(-c3cc(F)c(F)c(F)c3)nn2)[C@@H](O)[C@@H](CO)O[C@@H]1Sc1ccc(Cl)c(Cl)c1 [Example 15, 2-(((2R,3R,4S,5R,6R)-2-((3,4-dichlorophenyl)thio)-5-hydroxy-6-(hydroxymethyl)-4-(4-(3,4,5-trifluorophenyl)-1H-1,2,3-triazol-1-yl)tetrahydro-2H-pyran-3-yl)oxy)acetonitrile] | 230 nM
CCOC(=O)CO[C@@H]1[C@@H](n2cc(-c3cc(F)c(F)c(F)c3)nn2)[C@@H](O)[C@@H](CO)O[C@@H]1[S@@+]([O-])c1ccc(Cl)c(Cl)c1 [Example 16, ethyl 2-(((2R,3R,4S,5R,6R)-2-((S)-(3,4-dichlorophenyl)sulfinyl)-5-hydroxy-6-(hydroxymethyl)-4-(4-(3,4,5-trifluorophenyl)-1H-1,2,3-triazol-1-yl)tetrahydro-2H-pyran-3-yl)oxy)acetate] | 25 nM
CCOC(=O)CO[C@@H]1[C@@H](n2cc(-c3cc(F)c(F)c(F)c3)nn2)[C@@H](O)[C@@H](CO)O[C@@H]1S(=O)(=O)c1ccc(Cl)c(Cl)c1 [Example 17, ethyl 2-(((2R,3R,4S,5R,6R)-2-((3,4-dichlorophenyl)sulfonyl)-5-hydroxy-6-(hydroxymethyl)-4-(4-(3,4,5-trifluorophenyl)-1H-1,2,3-triazol-1-yl)tetrahydro-2H-pyran-3-yl)oxy)acetate] | 190 nM
O=C(O)CO[C@@H]1[C@@H](n2cc(-c3cc(F)c(F)c(F)c3)nn2)[C@@H](O)[C@@H](CO)O[C@@H]1S(=O)(=O)c1ccc(Cl)c(Cl)c1 [Example 19, 2-(((2R,3R,4S,5R,6R)-2-((3,4-dichlorophenyl)sulfonyl)-5-hydroxy-6-(hydroxymethyl)-4-(4-(3,4,5-trifluorophenyl)-1H-1,2,3-triazol-1-yl)tetrahydro-2H-pyran-3-yl)oxy)acetic acid] | 60 nM
O=C(CO[C@@H]1[C@@H](n2cc(-c3cc(F)c(F)c(F)c3)nn2)[C@@H](O)[C@@H](CO)O[C@@H]1Sc1ccc(Cl)c(Cl)c1)N1CCC(O)CC1 [Example 20, 2-(((2R,3R,4S,5R,6R)-2-((3,4-dichlorophenyl)thio)-5-hydroxy-6-(hydroxymethyl)-4-(4-(3,4,5-trifluorophenyl)-1H-1,2,3-triazol-1-yl)tetrahydro-2H-pyran-3-yl)oxy)-1-(4-hydroxypiperidin-1-yl)ethan-1-one] | 40 nM
